Laboratory results reported in patent US6723747B2, “Substituted 6H-DiBenzo[c,h]chromenes as estrogenic agents” (Wyeth, priority 2001, dated 2004).

How the values were obtained:
[1] = molecular target: T1, human ERα (Homo sapiens, UniProt P03372); assay: Radioligand binding competition with [3H]-17β-estradiol, ERα; conditions: human ERα ligand binding domain, read-out: ER-α IC50
T1 construct: amino acids M250-V595 of human ERα; His (N); made in house; host or cells: E. coli BL21(DE3), clarified lysate
T1 sequence (P03372 250-595): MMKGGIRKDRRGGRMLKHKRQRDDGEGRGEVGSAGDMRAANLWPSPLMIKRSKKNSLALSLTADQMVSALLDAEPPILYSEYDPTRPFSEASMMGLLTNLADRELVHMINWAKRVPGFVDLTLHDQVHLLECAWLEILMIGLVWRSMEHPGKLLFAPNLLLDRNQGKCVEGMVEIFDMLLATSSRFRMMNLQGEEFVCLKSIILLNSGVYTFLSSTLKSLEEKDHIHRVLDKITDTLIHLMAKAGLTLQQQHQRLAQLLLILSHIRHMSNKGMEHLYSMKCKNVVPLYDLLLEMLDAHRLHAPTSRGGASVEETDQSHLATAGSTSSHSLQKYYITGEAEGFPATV

[2] = system: HLA-B27 rats; assay: HLA-B27 rat model of arthritis; format: in vivo; conditions: 10 mg/kg orally once daily, Study 2
Source text: The degree of arthritis severity is monitored daily in terms of the following disease indices: Hindpaw erythema, hindpaw swelling, tenderness of the joints, and movements and posture. An integer scale of 0 to 3 is used to quantify the level of erythema (0=normal paw, 1=mild erythema, 2=moderate erythema, 3=severe erythema) and swelling (0=normal paw, 1=mild swelling, 2=moderate swelling, 3=severe swelling of the hind paw). The maximal score per day is 12.
Evaluation in the HLA-B27 Rat model of arthritis. Representative compounds of the invention were evaluated in the HLA-B27 rat standard pharmacological test procedure which emulates arthritis in humans. The following briefly describes the procedure used and results obtained. Male HLA-B27 rats (8-10 weeks old) were obtained from Taconic and provided unrestricted access to a food (PMI Lab diet 5001) and water. Rats were dosed orally once daily with either vehicle (2% tween-80/0.5% methylcellulose) or test compound (10 mg/kg) for 26 days. Joint scores and histology are evaluated as described above for the Lewis rat model of adjuvant-induced arthritis.

In the case of `N#Cc1cc2c(c3ccc(O)cc13)OCc1cc(O)ccc1-2` [Example 1d, 2,8-Dihydroxy-6H-dibenzo[c,h]chromene-12-carbonitrile], the melting point is reported as over 250 °C, the IC50 [1] is reported as 107 nM and the joint inflammation score ([2]; day 1, vehicle 0) is reported as 0. The joint inflammation score ([2]; day 2, vehicle 0) was 0, the joint inflammation score ([2]; day 3, vehicle 0) was 0 and the joint inflammation score ([2]; day 4, vehicle 0) was 0. It also gave a joint inflammation score ([2]; day 5, vehicle 0) of 0, a joint inflammation score ([2]; day 6, vehicle 0) of 0 and a joint inflammation score ([2]; day 7, vehicle 0) of 0. For the same compound, the joint inflammation score ([2]; day 8, vehicle 2.5) was 2, the joint inflammation score ([2]; day 9, vehicle 3.75) was 1.25 and the joint inflammation score ([2]; day 10, vehicle 2.75) was 1. The joint inflammation score ([2]; day 11, vehicle 3.5) was 0, the joint inflammation score ([2]; day 12, vehicle 1.25) was 0.5 and the joint inflammation score ([2]; day 13, vehicle 1.25) was 0.25. For the same compound, the joint inflammation score ([2]; day 14, vehicle 1.25) was 0, the joint inflammation score ([2]; day 15, vehicle 5.25) was 0.25 and the joint inflammation score ([2]; day 16, vehicle 4.5) was 1. It also gave a joint inflammation score ([2]; day 17, vehicle 3.5) of 1, a joint inflammation score ([2]; day 18, vehicle 3.75) of 0.5 and a joint inflammation score ([2]; day 19, vehicle 5.5) of 0.75. For the same compound, the joint inflammation score ([2]; day 22, vehicle 3.25) was 0.25, the joint inflammation score ([2]; day 23, vehicle 6.5) was 2 and the joint inflammation score ([2]; day 24, vehicle 6.5) was 2. The joint inflammation score ([2]; day 25, vehicle 6.25) was 2 and the joint inflammation score ([2]; day 26, vehicle 7) was 1.75.
